Measured values taken from patent US4749798A, “Fluoro coumarins as antilymphoedema agents” (priority 1984, dated 1988).
“Also recorded” adds a separate entry of the source. Like-named read-outs stand apart in the source and are kept apart here.

Assays:
[1] = tested on: mouse peritoneal macrophages; experiment: proteolysis by mouse peritoneal macrophages; details: for Potency ratio in the proteolytic test: 50 mg/kg i.p. in sesame oil, 10 replication, coumarin = 1; for Mean ICA-soluble fragm. (24 h-0 h) x 10^6 cell: 10 mice; for minimal effective dose: Mus musculus, Peritoneal macrophage, ip; for increase in proteolysis: at the higher doses, coumarin at similar doses
Excerpt: Ability of the 6-fluoro coumarin itself, and the other compounds of the invention, to increase proteolysis by mouse peritoneal macrophages is shown by using the testing procedure reported by T. Bolton and J. R. Casley-Smith, Experimentia, 31, 275 (1975).
Due to the great standard error, many replications are necessary in order to obtain reliable dose-response curves.

[2] = tested on: carrageenan induced edema of the rats hind paw; experiment: carrageenan induced edema of the rat hind paw; format: in vivo; details: for activity relative to coumarin: "at least 1.5-2.5 times more active than coumarin"; for reduction of carrageenan induced edema: at all the times (1; 3; 4 and 5 h)
Excerpt: 6-fluoro coumarin and the compounds of the invention are also effective in the management of the acute inflammation.
The carrageenan edema test proposed by Winter C. A., Risley A., Noss G. W. (Proc. Soc. Exp. Biol., 101, 544, 1962) was used.
The compounds, administered i.p. 30' before the carrageenan as suspension in 1% aqueous carboxymethylcellulose homogeneized by ultrasounds, were compared with coumarin at different dose-levels on 6 animal groups. The percent reduction of the rat hind paw edema was evaluated at different times.

[3] = tested on: burning induced oedema of hind paws; experiment: burning induced oedema test; format: in vivo, Sprague-Dawley male rats; details: for activity relative to 6-fluoro coumarin (equiactive): burning induced oedema; for % inhibition / Paw volume, DV: 12 h
Method: Reduction of the burning induced oedema test has been also used to evidentiate the antiinflammatory activity and the proteolytic mechanism of action of the compounds of the invention. 18 hours-fasted Sprague-Dawley male rats, body weight: 170-220 g, are used in this testing procedure. The animals are divided into five animal groups and the volume (in ml) of the posterior hind paws is measured before these paws are burnt by immersion for 22 seconds in 55° C. heated water. 15 minutes after burning, the animals are treated, by oral route, with different dosages of the investigated compounds and placebo. The volume of paws is measured 6, 12 and 18 hours after burning and the increased volume of the paws is evaluated.

[4] = tested on: blood-dot area in right ear; experiment: re-absorption of citrated blood injected in the rabbit ear (blood-dot area); format: in vivo, New Zealand rabbits; details: oral, placebo 20.3
Method: Finally, the compounds of the invention are able to induce re-absorption of the total citrated blood when blood is injected in the right ear of New Zealand rabbits. 12 hours after blood inoculation into ear, the animal were randomized and treated with scalar doses of the investigated compounds administered for 4 days by oral route. The blood-dot areas are evaluated and compared with the areas of the control animals treated with placebo only. In table 5 are reported some experimental results.

lymphoedemas = experiment: preliminary experiments in humans with primary and secondary lymphoedemas; format: in vivo; details: capsules of 50 mg
Method: So, a very restricted number of selected male and female patients, affected by primary and secondary lymphoedemas, with intact renal and hepatic functions, was treated with the compounds of the invention, particularly with 6-fluoro coumarin.
In the absence of any other therapeutic treatment, the selected schedule of treatment foresees administration of capsules, many times pro die.
The diagnostic parameters investigated are: general and gastric clinical tolerability; number of red blood cell, leukocites, neutrophiles and platelets; haemoglobin concentration, γ-glutamyl transpeptidase; serum creatinine and volume of edema.

S. Pombae = experiment: forward mutation in S. Pombae; format: cell-based
coagulation factors = experiment: coagulation parameters (DPTT, Hepato quick, clotting time); format: in vivo
[5] = tested on: S-typhimurium TA 1535, TA 1537, TA 1538, TA 98 and TA 100; experiment: Ames test; format: cell-based
dog liver microsomes = experiment: incubation of labelled C^14-6 fluoro coumarin with dog liver microsomes; format: in vitro ADME; details: C^14-labelled
Method: Using the method reported by T. C. Butler et al. (Arch. Intern. Pharmacod. Ther., 228, 4 (1977)), labelled C^14 -6 fluoro coumarin was incubated with dog liver microsomes.

[6] = tested on: S. typhimurium (TA 1535, TA 1537, TA 1538, TA 98, TA 100); details: cited from earlier work
coagulation = details: Schofield; Feuer et al.; cited from earlier work
[7] = cited from earlier work
[8] = metabolism after oral administration to rabbits, analysis of faeces and urines over 24 hours; details: rabbit, coumarin in similar experimental conditions
Method: In a second experiment, C^14 -labelled 6-fluoro coumarin was administered by oral route to rabbits and faeces and urines were collected during a period of 24 hours. As it is usual for metabolic studies, the excreta were treated by β-glucoronidase and aryl sulfatase and extracted by methylene chloride in a little acid medium. […] In these studies, labelled 6-fluoro coumarin having a 1 Ci/mole specific radioactivity was used.

[9] = Occupational Safety and Health Administration; cited from earlier work
[10] = oral, 2 consecutive days, equimolecular doses

Compound: O=c1oc2ccc(F)cc2cc1Br [3-Br--6-fluoro, 6-fluoro-3-bromo-2H-1-benzopyran-2-one]
- Potency ratio in the proteolytic test [1]: 1.75
- activity relative to coumarin [2]: 1.5-2.5 times
- reduction of carrageenan induced edema [2]: reduce carrageenan induced edema of the rats hind paw at all the times
- activity relative to 6-fluoro coumarin (equiactive) [3]: 0.85-1.5 times
- % reduction of blood-dot area after 4 days ([4]; 50 mg/kg pro die): 69%

Compound: O=c1oc2ccc(F)cc2cc1Cl [3-Cl--6-fluoro, 6-fluoro-3-chloro-2H-1-benzopyran-2-one]
- Potency ratio in the proteolytic test [1]: 1.4

Compound: Cc1cc(=O)oc2ccc(F)cc12 [4-methyl-6-F, 6-fluoro-4-methyl-2H-1-benzopyran-2-one]
- Potency ratio in the proteolytic test [1]: 1.78
- activity relative to coumarin [2]: 1.5-2.5 times
- reduction of carrageenan induced edema [2]: reduce carrageenan induced edema of the rats hind paw at all the times
- activity relative to 6-fluoro coumarin (equiactive) [3]: 0.85-1.5 times
- % reduction of blood-dot area after 4 days ([4]; 50 mg/kg pro die): 65%

Compound: O=c1ccc2cc(F)cc(F)c2o1 [6,8-difluoro, 6,8-difluoro-2H-1-benzopyran-2-one]
- Potency ratio in the proteolytic test [1]: 1.45

Compound: O=c1ccc2cc(F)ccc2o1 [6-fluoro coumarin, 6-fluoro-2H-1-benzopyran-2-one]
- tolerability (lymphoedemas; 10 treated patients, all dosages investigated): excellent
- patients with significant reduction of the oedema volume (lymphoedemas; of 10 treated patients): 4 patients
- effects in forward mutation test (S. Pombae): No kinds of effects are noticed
- effects in mitotic genic conversion test (S. cerevisiae): No kinds of effects are noticed
- Significance of difference from control ([1]; 3.12 mg/kg i.p.): NS (p > 0.05)
- Mean ICA-soluble fragm. (24 h-0 h) x 10^6 cell ([1]; 3.12 mg/kg i.p.): 0.22 mM glycin
- Significance of difference from control ([1]; 6.25 mg/kg i.p.): NS (p > 0.05)
- Mean ICA-soluble fragm. (24 h-0 h) x 10^6 cell ([1]; 6.25 mg/kg i.p.): 0.19 mM glycin
- Significance of difference from control ([1]; 12.5 mg/kg i.p.): * (0.05 > p > 0.01)
- Mean ICA-soluble fragm. (24 h-0 h) x 10^6 cell ([1]; 12.5 mg/kg i.p.): 0.29 mM glycin
- Mean ICA-soluble fragm. (24 h-0 h) x 10^6 cell ([1]; 25 mg/kg i.p.): 0.37 mM glycin
- Significance of difference from control ([1]; 50 mg/kg i.p.): * (0.05 > p > 0.01)
- Potency ratio in the proteolytic test [1]: 11.5
- Mean ICA-soluble fragm. (24 h-0 h) x 10^6 cell ([1]; 50 mg/kg i.p.): 0.34 mM glycin
- Mean ICA-soluble fragm. (24 h-0 h) x 10^6 cell ([1]; 100 mg/kg i.p.): 0.40 mM glycin
- minimal effective dose ([1]; read-out: dosage level with proteolysis significantly greater than the control): > 6.25 mg/kg
- minimal effective dose ([1]; read-out: dose from which stimulation of protein digestion starts): 12.5 mg/kg
- increase in proteolysis [1]: threefold
- effects in gene mutation test (somatic mammalian cells): No kinds of effects are noticed
- effect on DPTT (coagulation factors; [10]): not able to modify
- effect on Hepato quick (coagulation factors; [10]): not able to modify
- effect on clotting time (coagulation factors; [10]): not able to modify
- activity relative to coumarin [2]: 1.5-2.5 times
- reduction of carrageenan induced edema [2]: reduce carrageenan induced edema of the rats hind paw at all the times
- mutagenic property in the Ames test [5]: no mutagenic property is evident
- metabolism by cytochromes (dog liver microsomes): not metabolized by cytochromes
- recovery of unchanged compound (dog liver microsomes): 80%
- % inhibition ([3]; 12.5 mg/kg oral): no sign
- Paw volume, DV ([3]; 12.5 mg/kg oral): 0.86 mL
- Paw volume, 12 h value ([3]; 12.5 mg/kg oral, basal 1.348): 2.207 mL
- % inhibition ([3]; 25.0 mg/kg oral): 37%
- Paw volume, DV ([3]; 25.0 mg/kg oral): 0.56 mL
- Paw volume, 12 h value ([3]; 25.0 mg/kg oral, basal 1.504): 2.060 mL
- % inhibition ([3]; 50.0 mg/kg oral): 67%
- Paw volume, DV ([3]; 50.0 mg/kg oral): 0.29 mL
- Paw volume, 12 h value ([3]; 50.0 mg/kg oral, basal 1.464): 1.760 mL
- % inhibition ([3]; 1000.0 mg/kg oral): 71%
- Paw volume, DV ([3]; 1000.0 mg/kg oral): 0.26 mL
- Paw volume, 12 h value ([3]; 1000.0 mg/kg oral, basal 1.416): 1.676 mL
- % reduction of blood-dot area after 4 days ([4]; 25 mg/kg pro die): 64.13%
- % reduction of blood-dot area after 4 days ([4]; 50 mg/kg pro die): 92%

Compound: CC(C)OC1C=Cc2cc(F)ccc2O1 (stereo not shown) [6-fluoro-2.xi.-isopropoxy-2H-1-benzopyrane]
- Potency ratio in the proteolytic test [1]: 1.61
- activity relative to coumarin [2]: 1.5-2.5 times
- reduction of carrageenan induced edema [2]: reduce carrageenan induced edema of the rats hind paw at all the times
- activity relative to 6-fluoro coumarin (equiactive) [3]: 0.85-1.5 times

Compound: COC1C=Cc2cc(F)ccc2O1 (stereo not shown) [6-fluoro-2.xi.-methoxy-2H-1-benzopyrane]
- % Reduction of the edema by carrageenan ([2]; 0.76 mg/kg i.p., 3 h): 58%
- % Reduction of the edema by carrageenan ([2]; 1.55 mg/kg i.p., 3 h): 70%
- % Reduction of the edema by carrageenan ([2]; 3.12 mg/kg i.p., 3 h): 79%
- % Reduction of the edema by carrageenan ([2]; 3.12 mg/kg i.p., 5 h): 87%
- % Reduction of the edema by carrageenan ([2]; 6.25 mg/kg i.p., 3 h): 84%
- activity relative to coumarin [2]: 1.5-2.5 times
- reduction of carrageenan induced edema [2]: reduce carrageenan induced edema of the rats hind paw at all the times
- activity relative to 6-fluoro coumarin (equiactive) [3]: 0.85-1.5 times

Compound: OC1C=Cc2cc(F)ccc2O1 (stereo not shown) [6-fluoro-2H--1-benzopyran-2.zeta.-ol, 6-fluoro-2H-1-benzopyran-2.xi.-ol]
- Potency ratio in the proteolytic test [1]: 1.45
- activity relative to coumarin [2]: 1.5-2.5 times
- reduction of carrageenan induced edema [2]: reduce carrageenan induced edema of the rats hind paw at all the times
- % reduction of blood-dot area after 4 days ([4]; 40 mg/kg pro die): 59%

Compound: OC1Oc2ccc(F)cc2C=C1Br (stereo not shown) [6-fluoro-3-bromo-2.xi.-hydroxy-2H-1-benzopyrane]
- % Reduction of the edema by carrageenan ([2]; 0.76 mg/kg i.p., 3 h): 65%
- % Reduction of the edema by carrageenan ([2]; 1.55 mg/kg i.p., 3 h): 72%
- % Reduction of the edema by carrageenan ([2]; 3.12 mg/kg i.p., 3 h): 88%
- % Reduction of the edema by carrageenan ([2]; 3.12 mg/kg i.p., 5 h): 84%
- % Reduction of the edema by carrageenan ([2]; 6.25 mg/kg i.p., 3 h): 87%

Compound: COC1Oc2ccc(F)cc2C=C1Br (stereo not shown) [6-fluoro-3-bromo-2.xi.-methoxy-2H-1-benzopyrane]
- activity relative to coumarin [2]: 1.5-2.5 times
- reduction of carrageenan induced edema [2]: reduce carrageenan induced edema of the rats hind paw at all the times
- activity relative to 6-fluoro coumarin (equiactive) [3]: 0.85-1.5 times

Compound: O=c1ccc2ccccc2o1 [coumarin, 2H-1-benzopyran-2-one]
- effects in forward mutation test (S. Pombae): positive responder
- effects in mitotic genic conversion test (S. cerevisiae): positive responder
- increase in proteolysis [1]: 2.2 fold
- mutagenicity [6]: weak mutagenic substance
- anticoagulant activity (coagulation): anticoagulant activites
- effects in gene mutation test (somatic mammalian cells): positive responder
- effect on Hepato quick (coagulation factors; in vivo, po): moderately influences Hepato quick (in decreasing way)
- % Reduction of the edema by carrageenan ([2]; 1.55 mg/kg i.p., 3 h): 23%
- % Reduction of the edema by carrageenan ([2]; 3.12 mg/kg i.p., 3 h): 53%
- % Reduction of the edema by carrageenan ([2]; 3.12 mg/kg i.p., 5 h): 53.4%
- % Reduction of the edema by carrageenan ([2]; 6.25 mg/kg i.p., 3 h): 78%
- metabolism in man [7]: extensively metabolized in man upon first pass through the liver; also recorded: C-3 hydroxylation practically absent in man
- metabolism (hydroxylation / lactone ring opening) [8]: metabolized by hydroxylation and also by δ-lactone ring opening; also recorded: metabolized by hydroxylation and by δ-lacton ring opening
- inhibition ([3]; 50 mg/kg): 35%
- times less active than 6-fluoro coumarin ([3]; 50 mg/kg): about 2 times
- carcinogen category [9]: category I carcinogen
- % reduction of blood-dot area after 4 days ([4]; 50 mg/kg pro die): 67.31%

Compound: O=c1oc2ccccc2c(O)c1Cc1c(O)c2ccccc2oc1=O [dicoumarol, reference compound]
- anticoagulant activity (coagulation): anticoagulant activites
- effect on DPTT (coagulation factors; [10]): very strong effect
- effect on Hepato quick (coagulation factors; [10]): very strong effect
